Test system: 379773-124-R-J2-PDC complex spheroids, viability % test/control
Assay: Anticancer human tumor 379773-124-R-J2-PDC patient-derived endometrial carcinoma cell line growth inhibition [CLK]
Settings: for IC50: curve of first compound; for viability, T/C: stronger effect = lower value
Procedure, shortened: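 Patient-derived tumor cells grown as complex spheroids with HUVEC endothelial cells and mesenchymal stem cells, treated with drug combinations. Concentrations descend in half-log steps from near clinical Cmax, or from 10 microM if Cmax unknown.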
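Note: compound exposure lasted seven days before the viability readout.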
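Throughout, for viability, T/C: 100% = DMSO vehicle control wells.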

How did the IC50 (second compound 0.0316 µM) turn out when `CC(C)CC(NC(=O)C(Cc1ccccc1)NC(=O)c1cnccn1)B(O)O` (centres undefined) + CNC(=O)c1ccc(Nc2nc(OC3CCCC3)c3c(-c4ccc5nc(C)oc5c4)c[nH]c3n2)c(OC)c1 was run?
The IC50 was 1.54 nM.

What about the IC50 (second compound 0.1 µM) of the same compound?
Its IC50 is under 0.949 nM.

What about the IC50 (second compound 0.316 µM) of the same compound?
The IC50 was under 0.949 nM.

And the IC50 (second compound 1 µM)?
The IC50 was under 0.949 nM.

What about the IC50 (second compound 3.16 µM) of the same compound?
Its IC50 is under 0.949 nM.

What about the IC50 (second compound 10 µM) of the same compound?
Its IC50 is under 0.949 nM.

What about the viability, T/C (second compound 0.0316 µM, first compound 0.000949 µM) of the same compound?
Its viability, T/C is 81.6%.

And the viability, T/C (second compound 0.0316 µM, first compound 0.003 µM)?
Its viability, T/C is 6.67%.

What about the viability, T/C (second compound 0.0316 µM, first compound 0.00949 µM) of the same compound?
Its viability, T/C is 0.17%.

And the viability, T/C (second compound 0.0316 µM, first compound 0.03 µM)?
The viability, T/C was 0.19%.

What about the viability, T/C (second compound 0.0316 µM, first compound 0.0949 µM) of the same compound?
The viability, T/C was 0.13%.

What about the viability, T/C (second compound 0.0316 µM, first compound 0.3 µM) of the same compound?
The viability, T/C was 0.1%.

And the viability, T/C (second compound 0.1 µM, first compound 0.000949 µM)?
Its viability, T/C is 33.4%.

What about the viability, T/C (second compound 0.1 µM, first compound 0.003 µM) of the same compound?
Its viability, T/C is 3.4%.

And the viability, T/C (second compound 0.1 µM, first compound 0.00949 µM)?
Its viability, T/C is 0.32%.

What about the viability, T/C (second compound 0.1 µM, first compound 0.03 µM) of the same compound?
Its viability, T/C is 0.13%.

And the viability, T/C (second compound 0.1 µM, first compound 0.0949 µM)?
The viability, T/C was 0.12%.

What about the viability, T/C (second compound 0.1 µM, first compound 0.3 µM) of the same compound?
The viability, T/C was 0.09%.

And the viability, T/C (second compound 0.316 µM, first compound 0.000949 µM)?
Its viability, T/C is 42.3%.

And the viability, T/C (second compound 0.316 µM, first compound 0.003 µM)?
The viability, T/C was 1.94%.

What about the viability, T/C (second compound 0.316 µM, first compound 0.00949 µM) of the same compound?
Its viability, T/C is 0.13%.

And the viability, T/C (second compound 0.316 µM, first compound 0.03 µM)?
Its viability, T/C is 0.1%.

What about the viability, T/C (second compound 0.316 µM, first compound 0.0949 µM) of the same compound?
Its viability, T/C is 0.08%.

And the viability, T/C (second compound 0.316 µM, first compound 0.3 µM)?
Its viability, T/C is 0.08%.

What about the viability, T/C (second compound 1 µM, first compound 0.000949 µM) of the same compound?
The viability, T/C was 31.1%.

And the viability, T/C (second compound 1 µM, first compound 0.003 µM)?
Its viability, T/C is 1.88%.

What about the viability, T/C (second compound 1 µM, first compound 0.00949 µM) of the same compound?
The viability, T/C was 0.11%.

What about the viability, T/C (second compound 1 µM, first compound 0.03 µM) of the same compound?
Its viability, T/C is 0.1%.

And the viability, T/C (second compound 1 µM, first compound 0.0949 µM)?
Its viability, T/C is 0.08%.

What about the viability, T/C (second compound 1 µM, first compound 0.3 µM) of the same compound?
The viability, T/C was 0.08%.

What about the viability, T/C (second compound 3.16 µM, first compound 0.000949 µM) of the same compound?
Its viability, T/C is 30.1%.

What about the viability, T/C (second compound 3.16 µM, first compound 0.003 µM) of the same compound?
The viability, T/C was 0.38%.

And the viability, T/C (second compound 3.16 µM, first compound 0.00949 µM)?
Its viability, T/C is 0.11%.

And the viability, T/C (second compound 3.16 µM, first compound 0.03 µM)?
The viability, T/C was 0.09%.

What about the viability, T/C (second compound 3.16 µM, first compound 0.0949 µM) of the same compound?
Its viability, T/C is 0.1%.

And the viability, T/C (second compound 3.16 µM, first compound 0.3 µM)?
Its viability, T/C is 0.13%.

And the viability, T/C (second compound 10 µM, first compound 0.000949 µM)?
Its viability, T/C is 33.1%.

And the viability, T/C (second compound 10 µM, first compound 0.003 µM)?
The viability, T/C was 0.42%.

What about the viability, T/C (second compound 10 µM, first compound 0.00949 µM) of the same compound?
The viability, T/C was 0.13%.

What about the viability, T/C (second compound 10 µM, first compound 0.03 µM) of the same compound?
The viability, T/C was 0.11%.

What about the viability, T/C (second compound 10 µM, first compound 0.0949 µM) of the same compound?
Its viability, T/C is 0.16%.

What about the viability, T/C (second compound 10 µM, first compound 0.3 µM) of the same compound?
Its viability, T/C is 0.12%.

For `O=C(c1cc(Cc2n[nH]c(=O)c3ccccc23)ccc1F)N1CCN(C(=O)C2CC2)CC1` + CNC(=O)c1ccc(Nc2nc(OC3CCCC3)c3c(-c4ccc5nc(C)oc5c4)c[nH]c3n2)c(OC)c1, which IC50 (second compound 0.0316 µM) is on record?
Its IC50 is 5600 nM.

And the IC50 (second compound 0.1 µM)?
The IC50 was under 31.6 nM.

What about the IC50 (second compound 0.316 µM) of the same compound?
The IC50 was under 31.6 nM.

And the IC50 (second compound 1 µM)?
The IC50 was under 31.6 nM.

And the IC50 (second compound 3.16 µM)?
The IC50 was under 31.6 nM.

What about the IC50 (second compound 10 µM) of the same compound?
The IC50 was under 31.6 nM.

And the viability, T/C (second compound 0.0316 µM, first compound 0.0316 µM)?
Its viability, T/C is 76.2%.

And the viability, T/C (second compound 0.0316 µM, first compound 0.1 µM)?
The viability, T/C was 75.1%.

And the viability, T/C (second compound 0.0316 µM, first compound 0.316 µM)?
The viability, T/C was 67.7%.

What about the viability, T/C (second compound 0.0316 µM, first compound 1 µM) of the same compound?
The viability, T/C was 75.4%.

What about the viability, T/C (second compound 0.0316 µM, first compound 3.16 µM) of the same compound?
Its viability, T/C is 69.9%.

And the viability, T/C (second compound 0.0316 µM, first compound 10 µM)?
Its viability, T/C is 29.6%.

What about the viability, T/C (second compound 0.1 µM, first compound 0.0316 µM) of the same compound?
Its viability, T/C is 41.1%.

And the viability, T/C (second compound 0.1 µM, first compound 0.1 µM)?
The viability, T/C was 41.7%.

What about the viability, T/C (second compound 0.1 µM, first compound 0.316 µM) of the same compound?
Its viability, T/C is 37.8%.

What about the viability, T/C (second compound 0.1 µM, first compound 1 µM) of the same compound?
Its viability, T/C is 31.9%.

What about the viability, T/C (second compound 0.1 µM, first compound 3.16 µM) of the same compound?
The viability, T/C was 36.3%.

And the viability, T/C (second compound 0.1 µM, first compound 10 µM)?
The viability, T/C was 15.3%.

What about the viability, T/C (second compound 0.316 µM, first compound 0.0316 µM) of the same compound?
The viability, T/C was 51.7%.

And the viability, T/C (second compound 0.316 µM, first compound 0.1 µM)?
Its viability, T/C is 42.3%.

And the viability, T/C (second compound 0.316 µM, first compound 0.316 µM)?
The viability, T/C was 35.5%.

And the viability, T/C (second compound 0.316 µM, first compound 1 µM)?
The viability, T/C was 33.7%.

And the viability, T/C (second compound 0.316 µM, first compound 3.16 µM)?
The viability, T/C was 33%.

What about the viability, T/C (second compound 0.316 µM, first compound 10 µM) of the same compound?
The viability, T/C was 13.7%.

What about the viability, T/C (second compound 1 µM, first compound 0.0316 µM) of the same compound?
Its viability, T/C is 39.9%.

And the viability, T/C (second compound 1 µM, first compound 0.1 µM)?
Its viability, T/C is 32.2%.

And the viability, T/C (second compound 1 µM, first compound 0.316 µM)?
The viability, T/C was 29.8%.

What about the viability, T/C (second compound 1 µM, first compound 1 µM) of the same compound?
The viability, T/C was 33.3%.

What about the viability, T/C (second compound 1 µM, first compound 3.16 µM) of the same compound?
Its viability, T/C is 23.2%.

What about the viability, T/C (second compound 1 µM, first compound 10 µM) of the same compound?
The viability, T/C was 10.2%.

What about the viability, T/C (second compound 3.16 µM, first compound 0.0316 µM) of the same compound?
Its viability, T/C is 32.8%.

And the viability, T/C (second compound 3.16 µM, first compound 0.1 µM)?
Its viability, T/C is 34.1%.

What about the viability, T/C (second compound 3.16 µM, first compound 0.316 µM) of the same compound?
The viability, T/C was 26.3%.

What about the viability, T/C (second compound 3.16 µM, first compound 1 µM) of the same compound?
The viability, T/C was 33.5%.

And the viability, T/C (second compound 3.16 µM, first compound 3.16 µM)?
Its viability, T/C is 31%.

What about the viability, T/C (second compound 3.16 µM, first compound 10 µM) of the same compound?
The viability, T/C was 8.47%.

What about the viability, T/C (second compound 10 µM, first compound 0.0316 µM) of the same compound?
The viability, T/C was 29.5%.

What about the viability, T/C (second compound 10 µM, first compound 0.1 µM) of the same compound?
The viability, T/C was 29.9%.

And the viability, T/C (second compound 10 µM, first compound 0.316 µM)?
The viability, T/C was 24.8%.

What about the viability, T/C (second compound 10 µM, first compound 1 µM) of the same compound?
Its viability, T/C is 23.9%.

And the viability, T/C (second compound 10 µM, first compound 3.16 µM)?
The viability, T/C was 23.2%.

What about the viability, T/C (second compound 10 µM, first compound 10 µM) of the same compound?
The viability, T/C was 6.48%.

From PubChem BioAssay AID2060604 (Molecular Pharmacology Branch, DTP, NCI, 2025)
